Reference: patent publication US10610608B2, “Modular imaging agents containing amino acids and peptides” (Rochester Institute of Technology, priority 2013, dated 2020)

Test system: live A549 human cancer cells
Assay: Confocal fluorescence microscopy (CFM) of live A549 cells stained with c(RGDyK) peptide conjugates (TMIAs)
Type: cell-based
Conditions: 5 μM conjugate, 2 hours incubation, 37° C., HeNe633 laser
Experimental: The general protocol for Confocal Microscopy by Chen, et al was followed with the following detailed procedures for cell culture and staining.
Cell Preparation: An A549 culture obtained from the American Type Culture Collection (ATCC) was grown to 50-70% confluency in an In Vitro Scientific 35 mm culture dish with 10 mm Glass bottom well. The culture was incubated in DMEM (Dulbecco's Modified Eagle Medium) with 10% Fetal Bovine Serum (FBS) overnight at 37° C. and 5% CO2. To obtain a suspension cell culture for transfer purpose, the cells were washed with Phosphate Buffered Saline (PBS) and then 0.25% Trypsin-EDTA (1×) (Invitrogen) was added to detach the cells.
Cell Staining: The cells were washed 3× with pre-heated PBS (Phosphate-buffered saline). 5 μM c(RGDyK) peptide conjugates (TMIAs) were added to the 10 mm glass bottom well and incubated at 37° C. and 5% CO2. Cells were then washed 4× with chilled PBS. The samples were viewed immediately under the scanning laser confocal microscope (Leica Microsystems Inc.). Confocal Microscopy Scanning: Leica TCS SP5 II AOBS Filter Free Tunable Spectral Confocal Research Microscope with Resonant Scanner and Hybrid Detectors attached to Leica DMI6000 Fully Automated Microscope was used, with 40× water immersion objective. The 405 Diode and HeNe633 lasers were employed for visualizing suspected auto-fluorescence, c(RGDyK) Cy5.5-TMIA respectively. […]

With “c(RGDyK)-SMCC-DLys(Cy5.5)-Lys(Gd-DOTA)-NH2 [Compound (44)]” the “CFM image: fluorescence of the TMIA in the cell” value was “illuminated areas a result of fluorescence of the TMIA”.
